The test system of data set [1] is pDCs. In kind it is cell-based, human.
Data set [2] concerns pDCs. In kind it is cell-based, human. This is another data set of the same source.
The test system of data set [3] is pDCs. It is filed as cell-based, human. The source holds these as a separate data set.
The test system of data set [4] is macrophages. It is filed as cell-based, human.
Data set [5] deals with macrophages. Briefly: FAIRE assay on promoter regions of IL6, TNF and IL12p40 in macrophages. Conditions: cells primed with IFN-α 24 hours, then LPS 3 hours, FIG. 4G. In kind it is cell-based, human.
Data set [6] deals with macrophages. Briefly: Immunoblot of NF-κB and MAPKs signaling in macrophages. In kind it is cell-based, human. The note with it: whole cell lysates, FIG. 20B. A general note: A western blot detects proteins with antibodies after separation by electrophoresis.
The test system of data set [7] is pDCs. In kind it is cell-based, human. This is another data set of the same source.
Data set [8] deals with pDCs.

Entries after “also recorded” stand apart in the source; their conditions may differ.

On to `Cc1cc(C)nc(NC(=S)N2CCN(Cc3ccc(C(F)(F)F)cc3)CC2)c1` [NCT-503], for which the “intracellular pyruvate levels in ER stressed-pDCs” value in the data set with pDCs [1] is given as “restored”. For the same molecule, in the data set on pDCs [2], the “intracellular ATP levels under ER stress” value was “restored”. Further, in the data set with pDCs [3], the “IFNA expression by TLR9-activated pDCs facing ER stress” value is reported as “restored”.
Consider `CC(=O)C(=O)[O-].[Na+]` [pyruvate, sodium pyruvate], for which, in the data set with pDCs [2], the “intracellular ATP levels under ER stress” value is reported as “restored”. The “IFNA expression by pDCs under ER stress condition” value in the data set on pDCs [3] is “restore”.
Turning to IFN-α, in the data set on macrophages [4], the “LPS-induced response in macrophages: TNF, IL6, IL1B, IL12B and IFNB” value is recorded as “superinduction; also recorded: increases”; the “TLR4 expression or of the 2 subunits of the IFNAR in the macrophages” value is on record as “little change”; the “chemokine receptors expression on macrophages” value is on record as “significant impact”; the “inflammatory genes (IL-1β, IL-12p40, IFN-β and CXCL10) expression” value is on record as “dose-dependent manner”. Also, the “chromatin accessibility of IL6 and TNF promoters” value with macrophages [5] is on record as “significantly increased; also recorded: increase”. The “TLR4-induced IKBα degradation or activation of MAPKs ERK and p38” value with macrophages [6] is “minimal effects; also recorded: does not increase”.
Consider `Cc1ccc(OCCN(C)C(=O)Cn2cc(NC(=O)CCOc3ccccc3)cn2)cc1` [IXA4], for which the PHGDH gene expression result in the data set with pDCs [3] is “induced”.
In the case of `N[C@@H](CO)C(=O)O` [L-serine], the “IFN-α secretion by TLR9-activated pDCs” value in the data set with pDCs [7] is given as “unaltered”.
For `O.O=C([O-])CCC(=O)C(=O)[O-].[Na+].[Na+]` [α-KG, α-ketoglutaric acid disodium salt hydrate], the “intracellular ATP levels under ER stress” value in the data set on pDCs [2] is listed as “restored”.
Turning to `O=C(O)CCCCC(CCSCc1ccccc1)SCc1ccccc1` (centres unmarked) [CPI-613, 6,8-bis-benzylthio-octanoic acid], the “intracellular ATP levels in TLR9-activated pDCs” value in the data set with pDCs [2] is reported as “reduced”. Besides, in the data set with pDCs [3], the XBP1 splicing entry is recorded as “no effect”; the “expression of ISGs such as GBP1, IRF7, ISG54, MxB, CXCL10” value is given as “inhibited”; the “expression of PHGDH” value is reported as “no effect”. Besides, in the data set with pDCs [3] (5 h), the “expression of IFN-α (IFNA)” value is listed as “inhibited”. The “secretion of IFN-α” value in the data set with pDCs [7] is “inhibited”. The cell viability entry with pDCs [8] is given as “no effect”.
Turning to `C/C=C(/C)C(=O)O[C@H]1C(C)=C2[C@H]([C@@H]1OC(=O)CCCCCCC)[C@@](C)(OC(C)=O)C[C@H](OC(=O)CCC)[C@@]1(O)[C@H]2OC(=O)[C@@]1(C)O` [thapsigargin], in the data set on pDCs [3], the “gene encoding phosphoglycerate dehydrogenase (PHGDH) expression” value is on record as “markedly induced” and the “induction of serine amino acid biosynthesis genes” value is listed as “induction”.

These data come from patent US20250009779A1 (priority 2021, published 2025).
